Assay results taken from patent US20150105252A1, “SUBSTITUTED PYRAZOLES AS HERBICIDES” (E I DU PONT DE NEMOURS AND COMPANY, priority 2013, published 2015).

Legend:
galium = test: Test C postemergence; assay type: in vivo, Galium aparine
Procedure, shortened: (§1)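 Seeds sown in loam–sand blend and treated preemergence with test chemicals in non-phytotoxic solvent with surfactant; postemergence plants in peat-based medium, treated at 2–18 cm (1- to 4-leaf stage). Greenhouse 13 to 15 days, then visual rating versus controls, 0 (no effect) to 100 (complete control).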

corn = test: Test C postemergence; assay type: in vivo, Zea mays
Procedure, shortened: as §1

ryegrass, Italian = test: Test C postemergence; assay type: in vivo, Lolium multiflorum
Procedure, shortened: as §1

wheat = test: Test C postemergence; assay type: in vivo, Triticum aestivum
Procedure, shortened: as §1

johnsongrass = test: Test C postemergence; assay type: in vivo, Sorghum halepense
Procedure, shortened: as §1

oilseed rape = test: Test C postemergence; assay type: in vivo, Brassica napus
Procedure, shortened: as §1

blackgrass = test: Test C postemergence; assay type: in vivo, Alopecurus myosuroides
Procedure, shortened: as §1

waterhemp = test: Test C postemergence; assay type: in vivo, Amaranthus rudis
Procedure, shortened: as §1

soybean = test: Test C postemergence; assay type: in vivo, Glycine max
Procedure, shortened: as §1

pigweed = test: Test C postemergence; assay type: in vivo, Amaranthus retroflexus
Procedure, shortened: as §1

kochia = test: Test C postemergence; assay type: in vivo, Kochia scoparia
Procedure, shortened: as §1

velvetleaf = test: Test C postemergence; assay type: in vivo, Abutilon theophrasti
Procedure, shortened: as §1

nutsedge, yellow = test: Test C postemergence; assay type: in vivo, Cyperus esculentus
Procedure, shortened: as §1

lambsquarters [1] = test: Test C postemergence; assay type: in vivo, Chenopodium album
Procedure, shortened: as §1

chickweed = test: Test C postemergence; assay type: in vivo, Stellaria media
Procedure, shortened: as §1

morningglory = test: Test C postemergence; assay type: in vivo, Ipomoea coccinea
Procedure, shortened: as §1

lambsquarters [2] = test: Test C preemergence; assay type: in vivo, Chenopodium album
Procedure, shortened: as §1

foxtail, giant = test: Test C postemergence; assay type: in vivo, Setaria faberii
Procedure, shortened: as §1

[3] = Postemergence, 31 g ai/ha, visually evaluated after 13 to 15 days
[4] = postemergence, 62 g ai/ha, scale 0 to 100
[5] = postemergence, 250 g ai/ha, scale 0 to 100 (0 no effect, 100 complete control)
[6] = postemergence, 125 g ai/ha, scale 0 to 100, 0 no effect, 100 complete control

SMILES: CCOc1cc(C(=O)NCC(F)(F)F)nn1Cc1ccnc(C(F)(F)F)c1 [Compound 104]
- Plant response rating (scale of 0 to 100 where 0 is no effect and 100 is complete control), Galium (galium; [3]): 60
- Galium plant response rating (galium; [4]): 60
- Plant response rating, Galium (galium; [5]): 85
- Plant response rating, Galium (galium; [6]): 85
- Plant response rating (scale of 0 to 100 where 0 is no effect and 100 is complete control), Corn (corn; [3]): 5
- Corn plant response rating (corn; [4]): 35
- Plant response rating, Corn (corn; [5]): 95
- Plant response rating, Corn (corn; [6]): 35
- Plant response rating (scale of 0 to 100 where 0 is no effect and 100 is complete control), Ryegrass, Italian (ryegrass, Italian; [3]): 5
- Ryegrass, Italian plant response rating (ryegrass, Italian; [4]): 5
- Plant response rating, Ryegrass, Italian (ryegrass, Italian; [5]): 80
- Plant response rating, Ryegrass, Italian (ryegrass, Italian; [6]): 35
- Plant response rating (scale of 0 to 100 where 0 is no effect and 100 is complete control), Wheat (wheat; [3]): 5
- Wheat plant response rating (wheat; [4]): 10
- Plant response rating, Wheat (wheat; [5]): 25
- Plant response rating, Wheat (wheat; [6]): 10
- Plant response rating (scale of 0 to 100 where 0 is no effect and 100 is complete control), Johnsongrass (johnsongrass; [3]): 5
- Johnsongrass plant response rating (johnsongrass; [4]): 15
- Plant response rating, Johnsongrass (johnsongrass; [5]): 85
- Plant response rating, Johnsongrass (johnsongrass; [6]): 40
- Plant response rating (scale of 0 to 100 where 0 is no effect and 100 is complete control), Oilseed Rape (oilseed rape; [3]): 40
- Oilseed Rape plant response rating (oilseed rape; [4]): 50
- Plant response rating, Oilseed Rape (oilseed rape; [5]): 85
- Plant response rating, Oilseed Rape (oilseed rape; [6]): 60
- Plant response rating (scale of 0 to 100 where 0 is no effect and 100 is complete control), Blackgrass (blackgrass; [3]): 10
- Blackgrass plant response rating (blackgrass; [4]): 10
- Plant response rating, Blackgrass (blackgrass; [5]): 80
- Plant response rating, Blackgrass (blackgrass; [6]): 40
- Plant response rating (scale of 0 to 100 where 0 is no effect and 100 is complete control), Waterhemp (waterhemp; [3]): 35
- Waterhemp plant response rating (waterhemp; [4]): 85
- Plant response rating, Waterhemp (waterhemp; [5]): 98
- Plant response rating (scale of 0 to 100 where 0 is no effect and 100 is complete control), Soybean (soybean; [3]): 90
- Soybean plant response rating (soybean; [4]): 95
- Plant response rating, Soybean (soybean; [5]): 95
- Plant response rating, Soybean (soybean; [6]): 95
- Plant response rating (scale of 0 to 100 where 0 is no effect and 100 is complete control), Pigweed (pigweed; [3]): 50
- Pigweed plant response rating (pigweed; [4]): 85
- Plant response rating, Pigweed (pigweed; [5]): 98
- Plant response rating, Pigweed (pigweed; [6]): 95
- Plant response rating (scale of 0 to 100 where 0 is no effect and 100 is complete control), Kochia (kochia; [3]): 85
- Kochia plant response rating (kochia; [4]): 90
- Plant response rating, Kochia (kochia; [5]): 90
- Plant response rating, Kochia (kochia; [6]): 90
- Plant response rating (scale of 0 to 100 where 0 is no effect and 100 is complete control), Velvetleaf (velvetleaf; [3]): 25
- Velvetleaf plant response rating (velvetleaf; [4]): 40
- Plant response rating, Velvetleaf (velvetleaf; [5]): 80
- Plant response rating, Velvetleaf (velvetleaf; [6]): 65
- Plant response rating (scale of 0 to 100 where 0 is no effect and 100 is complete control), Nutsedge, Yellow (nutsedge, yellow; [3]): 5
- Nutsedge, Yellow plant response rating (nutsedge, yellow; [4]): 5
- Plant response rating, Nutsedge, Yellow (nutsedge, yellow; [5]): 60
- Plant response rating, Nutsedge, Yellow (nutsedge, yellow; [6]): 10
- Plant response rating (scale of 0 to 100 where 0 is no effect and 100 is complete control), Lambsquarters (lambsquarters [1]; [3]): 80
- Lambsquarters plant response rating (lambsquarters [1]; [4]): 95
- Plant response rating, Lambsquarters (lambsquarters [1]; [5]): 95
- Plant response rating, Lambsquarters (lambsquarters [1]; [6]): 95
- Plant response rating (scale of 0 to 100 where 0 is no effect and 100 is complete control), Chickweed (chickweed; [3]): 55
- Chickweed plant response rating (chickweed; [4]): 70
- Plant response rating, Chickweed (chickweed; [5]): 90
- Plant response rating, Chickweed (chickweed; [6]): 80
- Plant response rating (scale of 0 to 100 where 0 is no effect and 100 is complete control), Morningglory (morningglory; [3]): 0
- Morningglory plant response rating (morningglory; [4]): 80
- Plant response rating, Morningglory (morningglory; [5]): 98
- Plant response rating, Morningglory (morningglory; [6]): 95
- Plant response rating (scale of 0 to 100), Lambsquarters (lambsquarters [2]; Preemergence, 250 g ai/ha): 100
- Lambsquarters plant response rating (lambsquarters [2]; preemergence, 31 g ai/ha, visual rating, scale 0 to 100 (0 no effect, 100 complete control), 13 to 15 days): 98
- Plant response rating, Lambsquarters (lambsquarters [2]; preemergence, 62 g ai/ha, 13 to 15 days, scale 0 to 100, 0 = no effect, 100 = complete control): 98
- Lambsquarters plant response rating (lambsquarters [2]; preemergence, 125 g ai/ha, scale 0 to 100, 0 is no effect, 100 is complete control): 100
- Plant response rating (scale of 0 to 100 where 0 is no effect and 100 is complete control), Foxtail, Giant (foxtail, giant; [3]): 5
- Foxtail, Giant plant response rating (foxtail, giant; [4]): 85
- Plant response rating, Foxtail, Giant (foxtail, giant; [5]): 98
- Plant response rating, Foxtail, Giant (foxtail, giant; [6]): 90
